Several values for one entry are separate records, joined by “and”; a condition that tells them apart may be missing. Identical values can stand only once. Like-named read-outs stand apart in the source and are kept apart here.
What was measured:
CYP3A4 = details: role: substrate; in vitro; cited from earlier work
[1] = single dose, high-fat high-calorie meal vs fasted, healthy subjects; cited from earlier work
[2] = single oral dose, radiolabeled, healthy subjects; cited from earlier work
BCRP = details: role: inhibitor; clinically relevant concentrations, in vitro; cited from earlier work
CYP2C8 = details: role: substrate; in vitro; cited from earlier work
OATP1B1 = details: role: inhibitor; clinically relevant concentrations, in vitro; cited from earlier work
[3] = 200 and 400 mg; cited from earlier work
[4] = Embryo-fetal developmental study in rabbits; format: in vivo; details: rabbit
bacteria = details: in vitro; cited from earlier work
P-gp [5] = details: role: inhibitor; clinically relevant concentrations, in vitro; cited from earlier work
[6] = pregnant rabbits, cited from earlier work
P-gp [7] = details: role: substrate; in vitro; cited from earlier work
UGT1A1 = details: role: inhibitor; in vitro; cited from earlier work
[8] = Changes in belumosudil exposure in subjects with hepatic impairment compared to subjects with normal hepatic function; format: in vivo, human; details: single 200 mg
[9] = dogs; cited from earlier work
[10] = Phase I single-dose open-label pharmacokinetic study in participants with normal hepatic function and varying degrees of hepatic impairment; format: in vivo, human; details: for Vd/F / AUC(0-inf) / AUC(0-t) / AUC(0-t) at 24 h / CL/F / Cmax / Tmax / half-life: human, po, 200 mg; for Vd/F / AUC(0-inf) / AUC(0-t) / AUC(0-t) at 24 h / CL/F / Cmax / Tmax / half-life / t1/2 / tlast: plasma; for Vd/F: read-out: Vz/F; for Tmax / tlast: median
Source text: The primary objective was to assess the pharmacokinetic (PK) of belumosudil following a single oral dose of belumosudil in participants with mild, moderate, or severe hepatic impairment compared to healthy participants with normal hepatic function.
The secondary objectives were: to evaluate the safety and tolerability of a single oral dose of belumosudil in participants with mild, moderate, or severe hepatic impairment, and in healthy participants with normal hepatic function; to assess the PK of the belumosudil metabolites following a single oral dose of belumosudil in participants with mild, moderate, or severe hepatic impairment compared to healthy participants with normal hepatic function.
Approximately 38 participants were to be enrolled into the following groups based on their hepatic function, as determined according to the Child-Pugh system. • Group 1 (n=approximately 16): matched healthy participants with normal hepatic function • Group 2 (n=8): participants with mild hepatic impairment (Child-Pugh Class A [score of 5 or 6]) • Group 3 (n=8): participants with moderate hepatic impairment (Child-Pugh Class B [score of 7 to 9]) • Group 4 (n=6): participants with severe hepatic impairment (Child-Pugh Class C [score of 10 to 14]).
Healthy participants with normal hepatic function (Group 1) were demographically matched by age (±10 years), sex, and body mass index (BMI; +20%) to participants with hepatic impairment (Groups 2, 3, and 4). Participants with normal hepatic function could be matched to multiple participants across the 3 hepatic impairment groups (mild, moderate, and severe), but could not be matched to more than 1 participant within the same impairment group.
Pharmacokinetic blood samples were obtained from predose until 48 hours postdose (Day 3).
Summary tables, mean (+standard deviation [SD]) figures, overlaying individual figures, and individual figures by hepatic function and time postdose were provided for plasma PK concentrations. Summary tables by hepatic function were provided for all PK parameters, with the exception of terminal phase regression-related diagnostic parameters (λz, λz upper, λ z lower, λz number of points, R2-adj, and % AUCextrap), which were listed only.
All other PK parameters were regarded as secondary and were not participant to inferential statistical analysis.

[11] = test system: human peripheral blood lymphocytes (HPBL); details: in vitro; cited from earlier work
[12] = Embryo-fetal development studies in rats; format: in vivo; details: rat
Protocol: In the pilot study, maternal toxicity and embryo-fetal developmental effects were observed. Maternal toxicity (reduced body weight gain) occurred at 150 and 300 mg/kg/day doses. Increased post-implantation loss occurred at 50 and 300 mg/kg/day.

UGT1A9 = details: role: inhibitor; in vitro; cited from earlier work
[13] = moderate (Child-Pugh B) vs normal
[14] = severe (Child-Pugh C) vs normal
[15] = single oral 200 mg belumosudil, fed, mild hepatic impairment, geometric mean (CV %)
[16] = single oral 200 mg belumosudil, fed, moderate hepatic impairment, geometric mean (CV %)
[17] = single oral 200 mg belumosudil, fed, normal hepatic function, geometric mean (CV %)
[18] = single oral 200 mg belumosudil, fed, severe hepatic impairment, geometric mean (CV %)
[19] = single oral 200 mg belumosudil, fed, mild hepatic impairment
[20] = single oral 200 mg belumosudil, fed, moderate hepatic impairment
[21] = single oral 200 mg belumosudil, fed, normal hepatic function
[22] = single oral 200 mg belumosudil, fed, severe hepatic impairment

For `CC(C)NC(=O)COc1cccc(-c2nc(Nc3ccc4[nH]ncc4c3)c3ccccc3n2)c1` [belumosudil, 2-{3-[4-(1H-indazol-5-ylamino)-2-quinazolinyl]phenoxy}-N-(propan-2-yl) acetamide], the “metabolism by CYP3A4” value (CYP3A4) is given as “primarily metabolized”, the “increase in AUC with food” value [1] is given as 2 times and the “increase in Cmax with food” value [1] is given as 2.2 times. The “radioactivity recovered in feces” value [2] was 85%, the “radioactivity recovered in feces as unchanged” value [2] was 30% and the “radioactivity recovered in urine” value [2] was “less than 5%”. For the same compound, the BCRP inhibition (BCRP) was “inhibits”, the “metabolism by CYP2C8” value (CYP2C8) was “to a lesser extent” and the OATP1B1 inhibition (OATP1B1) was “inhibits”. For the same compound, the “dose proportionality of Cmax and AUC” value [3] was “increased in an approximately proportional manner”, the “maternal exposure (AUC) multiple of human exposure with adverse developmental outcomes” value [4] was ≥ 0.07 times the human exposure and the “genotoxicity, bacterial mutagenicity (Ames)” value (bacteria) was “not genotoxic”. The P-gp inhibition (P-gp [5]) was “inhibits”, the “doses with maternal toxicity (body weight loss and mortality)” value ([6]; oral) was ≥ 125 mg/kg/day and the “doses with embryo-fetal effects” value ([6]; oral, spontaneous abortion, post-implantation loss, malformations, decreased fetal weight) was ≥ 50 mg/kg/day. The “maternal exposure (AUC) causing embryo-fetal mortality and malformations vs patients” value ([6]; organogenesis) was “less than those in patients at the recommended dose”, the P-gp substrate (P-gp [7]) was “substrate” and the UGT1A1 inhibition (UGT1A1) was “inhibitor”. For the same compound, the “AUC change, free concentrations: decrease” value ([8]; mild (Child-Pugh A) vs normal) was 19%, the “AUC change, total (free + bound): increase” value ([8]; mild (Child-Pugh A) vs normal) was 1.4-fold and the “Cmax change, free concentrations: decrease” value ([8]; mild (Child-Pugh A) vs normal) was 14%. The “Cmax change, total (free + bound): increase” value ([8]; mild (Child-Pugh A) vs normal) was 1.2-fold, the “AUC change, free concentrations: increase” value [8, 13] was 1.4-fold and the “AUC change, total (free + bound): increase” value [8, 13] was 1.5-fold. The “Cmax change, free concentrations: decrease” value [8, 13] was 12%, the “Cmax change, total (free + bound): decrease” value [8, 13] was 6% and the “AUC change, free concentrations: increase” value [8, 14] was 16-fold. For the same compound, the “AUC change, total (free + bound): increase” value [8, 14] was 4.2-fold, the “Cmax change, free concentrations: increase” value [8, 14] was 5.4-fold and the “Cmax change, total (free + bound): increase” value [8, 14] was 1.3-fold. The “dose with spermatozoa degeneration” value [9] was 35 mg/kg/day, the Vd/F ([10]; geometric means across participants with hepatic impairment (mild, moderate, severe)) was 76.6 to 105 L and the Vd/F [10, 15] was 105 L. It also gave a Vd/F [10, 16] of 76.6 L, a Vd/F [10, 17] of 193 L and a Vd/F [10, 18] of 95.7 L. It also gave an AUC(0-inf) [10, 15] of 16000 ng·h/mL, an AUC(0-t) [10, 15] of 15800 ng·h/mL and an AUC(0-t) at 24 h [10, 15] of 15400 ng·h/mL. The CL/F [10, 15] was 208 mL/min, the Cmax [10, 15] was 2590 ng/mL and the Tmax [10, 19] was 2.98 h. It also gave an AUC(0-inf) [10, 16] of 23700 ng·h/mL, an AUC(0-t) [10, 16] of 23100 ng·h/mL and an AUC(0-t) at 24 h [10, 16] of 21300 ng·h/mL. For the same compound, the CL/F [10, 16] was 140 mL/min, the Cmax [10, 16] was 2490 ng/mL and the half-life [10, 16] was 6.3 h. For the same compound, the Tmax [10, 20] was 4 h, the AUC(0-inf) [10, 17] was 12800 ng·h/mL and the AUC(0-t) [10, 17] was 12000 ng·h/mL. It also gave an AUC(0-t) at 24 h [10, 17] of 11300 ng·h/mL, a CL/F [10, 17] of 260 mL/min and a Cmax [10, 17] of 2190 ng/mL. The half-life [10, 17] was 8.58 h, the Tmax [10, 21] was 3.5 h and the AUC(0-inf) [10, 18] was 30100 ng·h/mL. The AUC(0-t) [10, 18] was 29600 ng·h/mL, the AUC(0-t) at 24 h [10, 18] was 23400 ng·h/mL and the CL/F [10, 18] was 110 mL/min. For the same compound, the Cmax [10, 18] was 2170 ng/mL, the half-life [10, 18] was 10 h and the Tmax [10, 22] was 5.02 h. The “concentration profile and exposure” value ([10]; one participant with moderate impairment) was “greatly reduced concentration profile and exposure”, the t1/2 [10, 15] was 5.86 h and 5.86 (45.2) h and the tlast [10, 19] was 36.0 h. For the same compound, the t1/2 [10, 16] was 6.30 (44.4) [7] h, the tlast [10, 20] was 48.0 h and the t1/2 [10, 17] was 8.58 (48.8) [13] h. The tlast [10, 21] was 48.0 h, the t1/2 [10, 18] was 10.00 (40.7) h and the tlast [10, 22] was 48.0 h. For the same compound, the “concentration profiles and exposures” value ([10]; two participants with severe impairment) was “greatly reduced concentration profiles and exposures”, the “genotoxicity, chromosome aberration” value [11] was “not genotoxic” and the “maternal exposure (AUC) multiple of human exposure with adverse developmental outcomes” value [12] was ≥ 3 times the human exposure. The UGT1A9 inhibition (UGT1A9) was “inhibitor”.
